Measured values taken from patent publication US8912216B2, “Hetaryl-[1,8]naphthyridine derivatives” (Merck Patent GmbH, priority 2010, dated 2014).

Legend:
[1] = target: T1, GST-ALK5 (Homo sapiens, UniProt P36897); test: In-vitro (enzyme) kinase assay, 384-well flashplate (Example 36); format: biochemical; details: GST-ALK5, GST-SMAD2 substrate, 3 mM ATP, 30° C., 45 min; read-out: TβR activity (Example 36)
T1 sequence (P36897 34-503): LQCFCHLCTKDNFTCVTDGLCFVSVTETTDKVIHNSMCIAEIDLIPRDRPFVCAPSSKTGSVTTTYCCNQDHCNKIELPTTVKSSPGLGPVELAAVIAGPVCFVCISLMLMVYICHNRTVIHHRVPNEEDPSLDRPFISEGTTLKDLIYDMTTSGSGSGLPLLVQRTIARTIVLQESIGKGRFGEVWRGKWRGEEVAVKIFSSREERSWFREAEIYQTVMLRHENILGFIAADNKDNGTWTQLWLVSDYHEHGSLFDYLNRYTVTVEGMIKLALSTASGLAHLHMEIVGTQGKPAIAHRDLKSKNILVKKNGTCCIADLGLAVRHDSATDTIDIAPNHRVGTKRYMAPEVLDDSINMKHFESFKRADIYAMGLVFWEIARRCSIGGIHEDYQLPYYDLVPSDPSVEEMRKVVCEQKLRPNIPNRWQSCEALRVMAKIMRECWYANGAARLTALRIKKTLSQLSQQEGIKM
Experimental: In-vitro (Enzyme) Assay for Determination of the Efficacy of Inhibitors of the Inhibition of TGF-beta-Mediated Effects
The kinase assay was carried out as 384-well flashplate assay. 31.2 nM of GST-ALK5, 439 nM of GST-SMAD2 and 3 mM of ATP (with 0.3 μCi of ^33P-ATP/well) were incubated in a total volume of 35 μl (20 mM of HEPES, 10 mM of MgCl2, 5 mM of MnCl2, 1 mM of DTT, 0.1 of BSA, pH 7.4) without or with test substance (5-10 concentrations) at 30° C. for 45 min. The reaction was stopped using 25 μl of 200 mM EDTA solution, filtered with suction at room temperature after 30 min, and the wells were washed with 3 times 100 μl of 0.9% NaCl solution. Radioactivity was measured in the TopCount. The IC50 values were calculated using RS1.

[2] = system: TGF-beta-induced phosphorylation of Smad2 and Smad3 in Mv1-Lu cells; test: Inhibition of Smad2/3 phosphorylation in Mv1Lu cells (Example 35A); format: cell-based, mink Mustela vison; details: Neogale vison, Mv1-Lu cells, TGF-beta 1 5 ng/ml, phospho-Smad2/3 ELISA, read-out: TβR activity (Example 35A)
Experimental: Inhibition of Smad2/3 Phosphorylation in Mv1Lu Cells by TGF-bta Receptor I Kinase Inhibitors
This assay was used to determine the inhibitory potency of compounds on TGF-beta-induced phosphorylation of Smad2 (Ser465/467) and Smad3 (Ser423/425). Mv1-Lu cells (lung epithelial cell line from mink Mustela vison; ATCC number: CCL-64) were seeded in DMEM (Invitrogen) supplemented with 10% fetal bovine serum (Pan Biotech) at a defined cell density in 24-well or 96-well plates (24-well plate: 1.5×10^5 cells per well; 96-well plate: 4×10^4 cells per well). Cell cultures were incubated in DMEM at 37° C. and 10% CO2. On the next day, the medium was replaced and cells were serum-starved for 16-20 hours. The following day, serial dilutions of compounds were added to the wells, pre-incubated for 1.5 hrs before recombinant TGF-beta 1 ligand (final concentration 5 ng/ml; R&D systems) was added. After one hour of ligand stimulation, lysates were prepared and analyzed using an enzyme-linked immunosorbent assay kit (PathScan Phospho-Smad2 Kit, Cell Signaling Technologies). The ELISA detects phosphorylated Smad2 as well as phosphorylated Smad3 with the phospho-specific antibody. TGF-beta stimulated cells and unstimulated cells served as positive and negative controls (100% and background control). The concentration of the vehicle DMSO was kept constant at 0.2% (v/v) in all wells. Dose-response relationships were fitted using curve fitting algorithms of the RS1 statistics software package (Brooks Automation Inc. RS/1—Statistical Tools Handbook. Release 6.2) to determine the concentration at which half-maximal inhibition (IC50) of Smad2/3 phosphorylation was achieved.

SMILES	IC50 [1] [nM]	IC50 [2] [nM]
OCCN1CCC(n2cc(-c3cncc(-c4cc(-c5ccccc5F)nc5ncccc45)c3)cn2)CC1 [compound 53, 2-[4-(4-{5-[2-(2-Fluoro-phenyl)-[1,8]naphthyridin-4-yl]-pyridin-3-yl}-pyrazol-1-yl)-piperidin-1-yl]-ethanol]	< 100	< 100
CN1CCC(n2cc(-c3cncc(-c4cc(-c5ccccc5F)nc5ncccc45)c3)nn2)CC1 [compound 55, 2-(2-Fluoro-phenyl)-4-{5-[1-(1-methyl-piperidin-4-yl)-1H-[1,2,3]triazol-4-yl]-pyridin-3-yl}-[1,8]naphthyridine]	< 100	< 100
CN1CCN(c2nc(-c3cncc(-c4cc(-c5cc(Cl)ccc5F)nc5ncccc45)c3)no2)CC1 [compound 56, 2-(5-chloro-2-fluoro-phenyl)-4-{5-[5-(4-methyl-piperazin-1-yl)-[1,2,4]oxadiazol-3-yl]-pyridin-3-yl}-[1,8]naphthyridine]	< 100	100 to 1000
CN1CCC(c2nc(-c3cncc(-c4cc(-c5cc(Cl)ccc5F)nc5ncccc45)c3)no2)CC1 [compound 61, 2-(5-Chloro-2-fluoro-phenyl)-4-{5-[5-(1-methyl-piperidin-4-yl)-[1,2,4]oxadiazol-3-yl]-pyridin-3-yl}-[1,8]naphthyridine]	< 100	100 to 1000
CN1CCC(n2cc(-c3cncc(-c4cc(-c5ccccc5)nc5ncccc45)c3)cn2)CC1 [compound 63, 4-{5-[1-(1-Methyl-piperidin-4-yl)-1H-pyrazol-4-yl]-pyridin-3-yl}-2-phenyl-[1,8]naphthyridine]	< 100	100 to 1000
CN1CC[C@H](n2cc(-c3cncc(-c4cc(-c5ccccc5F)nc5ncccc45)c3)cn2)C1 [compound 69, 2-(2-Fluoro-phenyl)-4-{5-[1-((S)-1-methyl-pyrrolidin-3-yl)-1H-pyrazol-4-yl]-pyridin-3-yl}-[1,8]naphthyridine]	< 100	< 100
Nc1ncc(-c2cc(-c3cc(F)ccc3F)nc3ncccc23)c2ccncc12 [compound 73, 4-[2-(2,5-Difluoro-phenyl)-[1,8]naphthyridin-4-yl]-[2,7]naphthyridin-1-ylamine]	< 100	< 100
CC(=O)Nc1ncc(-c2cc(-c3ccccc3F)nc3ncccc23)c2ccncc12 [compound 74, N-{4-[2-(2-fluoro-phenyl)-[1,8]naphthyridin-4-yl]-[2,7]naphthyridin-1-yl}-acetamide]	100 to 1000	1000 to 10000
Fc1ccccc1-c1cc(-c2cncc(-c3cnn(CCn4cccn4)c3)c2)c2cccnc2n1 [compound 77, 2-(2-Fluoro-phenyl)-4-{5-[1-(2-pyrazol-1-yl-ethyl)-1H-pyrazol-4-yl]-pyridin-3-yl}-[1,8]naphthyridine]	100 to 1000	1000 to 10000
NS(=O)(=O)c1ccc(-c2cncc(-c3cc(-c4ccccc4F)nc4ncccc34)c2)cc1 [compound 78, 4-{5-[2-(2-Fluoro-phenyl)-[1,8]naphthyridin-4-yl]-pyridin-3-yl}-benzenesulfonamide]	< 100	100 to 1000

The next lines start with the values.

IC50 [1] [nM]	IC50 [2] [nM]	SMILES
< 100	< 100	COCCN1CCC(n2cc(-c3cncc(-c4cc(-c5ccccc5F)nc5ncccc45)c3)cn2)CC1 [compound 52, 2-(2-Fluoro-phenyl)-4-(5-{1-[1-(2-methoxy-ethyl)-piperidin-4-yl]-1H-pyrazol-4-yl}-pyridin-3-yl)-[1,8]naphthyridine]
< 100	1000 to 10000	CN1CCN(c2nc(-c3cncc(-c4cc(-c5ccccc5F)nc5ncccc45)c3)no2)CC1 [compound 54, 2-(2-Fluoro-phenyl)-4-{5-[5-(4-methyl-piperazin-1-yl)-[1,2,4]oxadiazol-3-yl]-pyridin-3-yl}-[1,8]naphthyridine]
< 100	< 100	CN1CCC(n2cc(-c3cncc(-c4cc(-c5cc(Cl)ccc5F)nc5ncccc45)c3)nn2)CC1 [compound 57, 2-(5-Chloro-2-fluoro-phenyl)-4-{5-[1-(1-methyl-piperidin-4-yl)-1H-[1,2,3]triazol-4-yl]-pyridin-3-yl}-[1,8]naphthyridine]
< 100	< 100	CN1CCC(n2cc(-c3cncc(-c4cc(-c5cc(Cl)ccc5F)nc5ncccc45)c3)cn2)C1 (stereo not drawn) [compound 58, 2-(5-Chloro-2-fluoro-phenyl)-4-{5-[1-(1-methyl-pyrrolidin-3-yl)-1H-pyrazol-4-yl]-pyridin-3-yl}-[1,8]naphthyridine]
< 100	< 100	CN1CCC(n2cc(-c3cncc(-c4cc(-c5ccccc5F)nc5ncccc45)c3)cn2)C1 (stereo not drawn) [compound 59, 2-(2-Fluoro-phenyl)-4-{5-[1-(1-methyl-pyrrolidin-3-yl)-1H-pyrazol-4-yl]-pyridin-3-yl}-[1,8]naphthyridine]
< 100	< 100	CN1CCC(n2cc(-c3cncc(-c4cc(-c5cc(F)ccc5F)nc5ncccc45)n3)cn2)CC1 [compound 62, 2-(2,5-Difluoro-phenyl)-4-{6-[1-(1-methyl-piperidin-4-yl)-1H-pyrazol-4-yl]-pyrazin-2-yl}-[1,8]naphthyridine]
< 100	< 100	CN1CC[C@@H](n2cc(-c3cncc(-c4cc(-c5ccccc5F)nc5ncccc45)c3)cn2)C1 [compound 64, 2-(2-Fluoro-phenyl)-4-{5-[1-((R)-1-methyl-pyrrolidin-3-yl)-1H-pyrazol-4-yl]-pyridin-3-yl}-[1,8]naphthyridine]
< 100	< 100	CN1CC[C@@H](n2cc(-c3cncc(-c4cc(-c5cc(Cl)ccc5F)nc5ncccc45)c3)cn2)C1 [compound 65, 2-(5-Chloro-2-fluoro-phenyl)-4-{5-[1-((R)-1-methyl-pyrrolidin-3-yl)-1H-pyrazol-4-yl]-pyridin-3-yl}-[1,8]naphthyridine]
< 100	< 100	CN1CC[C@H](n2cc(-c3cncc(-c4cc(-c5cc(Cl)ccc5F)nc5ncccc45)c3)cn2)C1 [compound 68, 2-(5-Chloro-2-fluoro-phenyl)-4-{5-[1-((S)-1-methyl-pyrrolidin-3-yl)-1H-pyrazol-4-yl]-pyridin-3-yl}-[1,8]naphthyridine]
< 100	1000 to 10000	Fc1ccccc1-c1cc(-c2cncc(-c3nccc(N4CCNCC4)n3)c2)c2cccnc2n1 [compound 71, 2-(2-fluoro-phenyl)-4-[5-(4-piperazin-1-yl-pyrimidin-2-yl)-pyridin-3-yl]-[1,8]naphthyridine]
< 100	100 to 1000	Nc1ncc(-c2cc(-c3ccccc3F)nc3ncccc23)c2ccncc12 [compound 72, 4-[2-(2-fluoro-phenyl)-[1,8]naphthyridin-4-yl]-[2,7]naphthyridin-1-ylamine]
100 to 1000	1000 to 10000	Fc1ccccc1-c1cc(-c2cncc(-n3cccn3)c2)c2cccnc2n1 [compound 79, 2-(2-Fluoro-phenyl)-4-(5-pyrazol-1-yl-pyridin-3-yl)-[1,8]naphthyridine]
100 to 1000	100 to 1000	Fc1ccccc1-c1cc(-c2cncc(-c3cnc4[nH]ncc4c3)c2)c2cccnc2n1 [compound 80, 2-(2-Fluoro-phenyl)-4-[5-(1H-pyrazolo[3,4-b]pyridin-5-yl)-pyridin-3-yl]-[1,8]naphthyridine]
< 100	100 to 1000	Fc1ccccc1-c1cc(-c2cncc(-c3ccc(N4CCNCC4)nc3)n2)c2cccnc2n1 [compound 81, 2-(2-Fluoro-phenyl)-4-[6-(6-piperazin-1-yl-pyridin-3-yl)-pyrazin-2-yl]-[1,8]naphthyridine]
